In ChEMBL document CHEMBL3046585, “Antifungal activity of a novel quercetin derivative bearing a trifluoromethyl group on Candida albicans” (Med Chem Res, 2012):
The source made the active and inactive calls. The rule behind the calls is not given here.

Tests used:
Candida albicans [1] = assay: Antifungal activity against Candida albicans PC31 at 2.10 mg/ml after 48 hr; format: functional, organism-based
Candida albicans [2] = assay: Antifungal activity against Candida albicans PC31 at 1.90 mg/ml after 48 hr; format: functional, organism-based
Candida albicans [3] = assay: Antifungal activity against Candida albicans PC31 at 0.06 mg/ml after 48 hr; format: functional, organism-based
Candida albicans [4] = assay: Antifungal activity against Candida albicans PC31 at 0.15 mg/ml after 48 hr; format: functional, organism-based
Candida albicans [5] = assay: Antifungal activity against Candida albicans PC31 at 1.30 mg/ml after 48 hr; format: functional, organism-based
Candida albicans [6] = assay: Antifungal activity against Candida albicans PC31 at 0.40 mg/ml after 48 hr; format: functional, organism-based
Candida albicans [7] = assay: Antifungal activity against Candida albicans PC31 at 0.50 mg/ml after 48 hr; format: functional, organism-based
Candida albicans [8] = assay: Antifungal activity against Candida albicans PC31 at 1.25 mg/ml after 48 hr; format: functional, organism-based
Candida albicans [9] = assay: Antifungal activity against Candida albicans PC31 at 0.60 mg/ml after 48 hr; format: functional, organism-based
Candida albicans [10] = assay: Antifungal activity against Candida albicans PC31 at 1.60 mg/ml after 48 hr; format: functional, organism-based
Candida albicans [11] = assay: Antifungal activity against Candida albicans PC31 at 2.20 mg/ml after 48 hr; format: functional, organism-based
[12] = 1-octanol-water partition coefficient, log P of the compound; format: physicochemical
Candida albicans [13] = assay: Antifungal activity against Candida albicans PC31 at 2.50 mg/ml after 48 hr; format: functional, organism-based
Candida albicans [14] = assay: Antifungal activity against Candida albicans PC31 at 0.30 mg/ml after 48 hr; format: functional, organism-based

SMILES	Activity (Candida albicans [1])	Activity (Candida albicans [2])	Activity (Candida albicans [3])	Activity (Candida albicans [4])	Activity (Candida albicans [5])	Activity (Candida albicans [6])	Activity (Candida albicans [7])	Activity (Candida albicans [8])	Activity (Candida albicans [9])	Activity (Candida albicans [10])	Activity (Candida albicans [11])	logP [12]	Activity (Candida albicans [13])	Activity (Candida albicans [14])
O=c1c(O)c(-c2ccc(O)c(Oc3c([N+](=O)[O-])cc(C(F)(F)F)cc3[N+](=O)[O-])c2)oc2cc(O)cc(O)c12	Active	Active	inactive	inactive	Active	inactive	inactive	Active	Active	Active	Active	0.62	Active	inactive
C[C@@H]1O[C@@H](OC[C@H]2O[C@@H](Oc3c(-c4ccc(O)c(O)c4)oc4cc(O)cc(O)c4c3=O)[C@H](O)[C@@H](O)[C@@H]2O)[C@H](O)[C@H](O)[C@H]1O [RUTIN]	inactive	inactive	inactive	inactive	inactive	inactive	inactive	inactive	inactive	inactive	Active	0.31	Active	inactive
